Structures can show the parent of a compound that is named as a salt. Where two headings read alike, the source gives them in different places.
Key:
[1] = biological target: JAK2 (Homo sapiens (Human), UniProt O60674); experiment: Inhibition of enzymatic JAK2 kinase activity (TR-FRET); type: biochemical; details: read-out: IC50 JAK
Method in brief: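 TR-FRET read-out (Eu antibody donor, Ulight poly Glu-Tyr acceptor, 665/615 nm ratio) after a 60 min RT kinase reaction with ATP, begun following 30 min compound–enzyme preincubation. Stopped by EDTA; inhibition expressed as 100 minus % activity of positive control.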

[2] = test system: RBL2H3 cells; experiment: Degranulation assay: β-hexosaminidase release during immune complex mediated degranulation; type: cell-based, rat; details: Rattus norvegicus, RBL-2H3; for inhibition at 1 µM: read-out: Degranulation % inhibition at 1 μM; for EC50: read-out: Degranulation EC50
Method in brief: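 Fluorometric β-NAG read-out (Ex 355, Em 460 nm; 30 min, RT) of supernatant after DNP-BSA stimulation (45–60 min) of anti-DNP IgE-sensitized RBL2H3 cells. Compounds (0.5% DMSO) added 15 min before antigen; degranulation expressed as % β-hexosaminidase release or inhibition.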

[3] = biological target: Syk (356-635 amino acids) catalytic domain (Homo sapiens (Human), UniProt P43405); experiment: Inhibition of enzymatic Syk kinase activity (radiometric); type: biochemical; details: read-out: IC50 Syk
Method in brief: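 Radiometric filter-binding format: 32P transfer from γ-32P-ATP onto pG4T, scintillation-counted after acid washes of P81 paper. Syk kinase domain (356-635), 0.035–7.5 ng per reaction, was exposed to compound for 30 minutes at room temperature before a 10-minute, 30° C. reaction with ATP (100 μM stock). Inhibition derived from counts with versus without compound.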

[4] = Assay Protocol B (96 well format)
[5] = Assay Protocol A (24 well format)

Chain of JAK2 (O60674 808-1132): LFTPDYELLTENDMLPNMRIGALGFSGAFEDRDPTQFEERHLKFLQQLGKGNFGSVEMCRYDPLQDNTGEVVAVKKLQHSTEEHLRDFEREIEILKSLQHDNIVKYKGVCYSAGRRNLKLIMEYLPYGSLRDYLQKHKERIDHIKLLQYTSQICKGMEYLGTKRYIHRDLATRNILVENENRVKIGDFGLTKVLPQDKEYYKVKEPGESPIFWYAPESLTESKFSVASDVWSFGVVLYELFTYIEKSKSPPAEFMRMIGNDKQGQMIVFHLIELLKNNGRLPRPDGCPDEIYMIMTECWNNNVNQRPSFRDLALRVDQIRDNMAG

SMILES | IC50 [1] [nM] | EC50 [2, 4] [nM] | IC50 [3] [nM] | EC50 [2, 5] [nM] | inhibition at 1 µM [2, 4] [%] | inhibition at 1 µM [2, 5] [%]
NC(=O)CC1CCN(c2ccc(Nc3nc(N4CCCCCC4)nc4cn[nH]c(=O)c34)cn2)CC1 [Example 99, 2-(1-(5-((2-(azepan-1-yl)-5-oxo-5,6-dihydropyrimido[4,5-d]pyridazin-4-yl)amino)pyridin-2-yl)piperidin-4-yl) acetamide] | < 50 | 44 | < 10 |  | 94 | 
O=c1[nH]ncc2nc(N3CCCCCC3)nc(Nc3ccc(OCCN4CCOCC4)cc3)c12 [Example 93, 2-(azepan-1-yl)-4-((4-(2-morpholinoethoxy)phenyl)amino) pyrimido[4,5-d]pyridazin-5(6H)-one] | < 50 |  | < 50 |  | 49 | 
O=C(O)CC1CCN(c2ccc(Nc3nc(N4CCCCCCC4)nc4cn[nH]c(=O)c34)cc2)CC1 [Example 88, 2-(1-(4-((2-(azocan-1-yl)-5-oxo-5,6-dihydropyrimido[4,5-d]pyridazin-4-yl)amino)phenyl)piperidin-4-yl)acetic acid] | < 10 | 76 | < 10 |  | 100 | 
O=C(O)CC1CCC(c2ccc(Nc3nc(N4CCCCCC4)nc4cn[nH]c(=O)c34)cc2)CC1 (stereo not drawn) [Example 91, 2-(4-(4-((2-(azepan-1-yl)-5-oxo-5,6-dihydropyrimido[4,5-d]pyridazin-4-yl)amino)phenyl)cyclohexyl)acetic acid] | < 50 | 154 | < 10 |  | 100 | 
CN1CCN(C(=O)COc2ccc(Nc3nc(N4CCCCCC4)nc4cn[nH]c(=O)c34)cc2)CC1 [Example 283, 2-(azepan-1-yl)-4-((4-(2-(4-methylpiperazin-1-yl)-2-oxoethoxy)phenyl)amino)pyrimido[4,5-d]pyridazin-5(6H)-one] | < 10 | 39 | < 10 |  | 71 | 
CC1CN(c2nc(Nc3ccc(N4CCC(CC(=O)O)CC4)cc3)c3c(=O)[nH]ncc3n2)CC(C)O1 (stereo not drawn) [Example 121, 2-(1-(4-((2-(2,6-dimethylmorpholino)-5-oxo-5,6-dihydropyrimido[4,5-d]pyridazin-4-yl)amino)phenyl)piperidin-4-yl)acetic acid] | < 50 | 156 | < 50 |  | 98 | 
CCN1CCN(c2ccc(Nc3nc(N4CCC(CC#N)CC4)nc4cn[nH]c(=O)c34)cc2)CC1 [Example 187, 2-(1-(4-((4-(4-ethylpiperazin-1-yl)phenyl)amino)-5-oxo-5,6-dihydropyrimido[4,5-d]pyridazin-2-yl)piperidin-4-yl)acetonitrile] | < 50 | 12 | < 10 |  | 100 | 
COCCN1CCN(c2ccc(Nc3nc(N4CCC(CC#N)CC4)nc4cn[nH]c(=O)c34)cc2)CC1 [Example 256, 2-(1-(4-((4-(4-(2-methoxyethyl)piperazin-1-yl)phenyl)amino)-5-oxo-5,6-dihydropyrimido[4,5-d]pyridazin-2-yl)piperidin-4-yl)acetonitrile] | < 50 | 33 | < 10 |  | 73 | 
CCN1CCN(c2ccc(Nc3nc(-c4ccccc4)nc4cn[nH]c(=O)c34)cc2)CC1 [Example 5, 4-(4-(4-ethylpiperazin-1-yl)phenylamino)-2-phenylpyrimido[4,5-d]pyridazin-5(6H)-one] | < 50 |  | < 10 | 39 |  | 100
O=C(O)C1CC12CCN(c1nc(Nc3ccc(CN4CCNCC4)cc3)c3c(=O)[nH]ncc3n1)CC2 (stereo not drawn) [Example 25, 6-(5-oxo-4-(4-(piperazin-1-ylmethyl)phenylamino)-5,6-dihydropyrimido[4,5-d]pyridazin-2-yl)-6-azaspiro[2.5]octane-1-carboxylic acid hydrochloride] | < 100 |  | < 50 |  |  | 79

More lines, main results first:

IC50 [1] [nM] | EC50 [2, 4] [nM] | IC50 [3] [nM] | EC50 [2, 5] [nM] | SMILES | inhibition at 1 µM [2, 4] [%] | inhibition at 1 µM [2, 5] [%]
< 50 | 152 | < 10 |  | N#CCC1CCN(c2nc(Nc3ccc(N4CCC(CCC(=O)O)CC4)cc3)c3c(=O)[nH]ncc3n2)CC1 [Example 147, 3-(1-(4-((2-(4-(cyanomethyl)piperidin-1-yl)-5-oxo-5,6-dihydropyrimido[4,5-d]pyridazin-4-yl)amino)phenyl)piperidin-4-yl)propanoic acid] | 49 | 
< 10 | 281 | < 10 |  | N#CCC1CCN(c2nc(Nc3ccc(N4CCN(CC(=O)O)CC4)cc3)c3c(=O)[nH]ncc3n2)CC1 [Example 162, 2-(4-(4-((2-(4-(cyanomethyl)piperidin-1-yl)-5-oxo-5,6-dihydropyrimido[4,5-d]pyridazin-4-yl)amino)phenyl)piperazin-1-yl)acetic acid] | 27 | 
< 10 | 30 | < 10 |  | CC(C)(CO)N1CCN(c2ccc(Nc3nc(N4CCCCCC4)nc4cn[nH]c(=O)c34)cc2)CC1 [Example 265, 2-(azepan-1-yl)-4-((4-(4-(1-hydroxy-2-methylpropan-2-yl)piperazin-1-yl)phenyl)amino)pyrimido[4,5-d]pyridazin-5(6H)-one] | 79 | 
< 10 | 6 | < 10 |  | CCN1CCN(c2ccc(Nc3nc(N4CCCCCC4)nc4cn[nH]c(=O)c34)cc2)CC1=O [Example 175, 2-(azepan-1-yl)-4-((4-(4-ethyl-3-oxopiperazin-1-yl)phenyl)amino) pyrimido[4,5-d]pyridazin-5(6H)-one] | 98 | 
< 50 | 33 | < 10 |  | CC(C)(C(=O)O)N1CCN(c2ccc(Nc3nc(N4CCC(CC#N)CC4)nc4cn[nH]c(=O)c34)cc2)CC1 [Example 213, 2-(4-(4-((2-(4-(cyanomethyl)piperidin-1-yl)-5-oxo-5,6-dihydropyrimido[4,5-d]pyridazin-4-yl)amino)phenyl)piperazin-1-yl)-2-methylpropanoic acid] | 78 | 
< 10 | 3 | < 10 |  | CCN1CCN(c2ccc(Nc3nc(N4CCCCCC4)nc4cn[nH]c(=O)c34)cc2)CC1 [Example 180, 2-(azepan-1-yl)-4-((4-(4-ethylpiperazin-1-yl)phenyl)amino)pyrimido[4,5-d]pyridazin-5(6H)-one] | 70 | 
< 10 | 98 | < 10 |  | O=C(O)CN1CCCN(c2ccc(Nc3nc(N4CCCCCC4)nc4cn[nH]c(=O)c34)cc2)CC1 [Example 145, 2-(4-(4-((2-(azepan-1-yl)-5-oxo-5,6-dihydropyrimido[4,5-d]pyridazin-4-yl)amino)phenyl)-1,4-diazepan-1-yl)acetic acid] | 52 | 
< 10 | 21 | < 10 |  | N#CCC1CCN(c2nc(Nc3ccc(N4CCC(CO)CC4)cc3)c3c(=O)[nH]ncc3n2)CC1 [Example 216, 2-(1-(4-((4-(4-(hydroxymethyl)piperidin-1-yl)phenyl)amino)-5-oxo-5,6-dihydropyrimido[4,5-d]pyridazin-2-yl)piperidin-4-yl)acetonitrile] | 92 | 
< 50 | 20 | < 50 |  | COC1CCN(c2ccc(Nc3nc(N4CCC(CC#N)CC4)nc4cn[nH]c(=O)c34)cc2)CC1 [Example 287, 2-(1-(4-((4-(4-methoxypiperidin-1-yl)phenyl)amino)-5-oxo-5,6-dihydropyrimido[4,5-d]pyridazin-2-yl)piperidin-4-yl)acetonitrile] | 97 | 
< 10 | 62 | < 10 |  | O=c1[nH]ncc2nc(N3CCCCCC3)nc(Nc3ccc(OC4CCN(CCO)CC4)cc3)c12 [Example 329, 2-(azepan-1-yl)-4-((4-((1-(2-hydroxyethyl)piperidin-4-yl)oxy)phenyl)amino) pyrimido[4,5-d]pyridazin-5(6H)-one] | 69 | 
< 50 | 42 | < 10 |  | O=c1[nH]ncc2nc(N3CCCCCC3)nc(Nc3ccc(N4CCCC(O)C4)nc3)c12 (stereo not drawn) [Example 277, 2-(azepan-1-yl)-4-((6-(3-hydroxypiperidin-1-yl)pyridin-3-yl)amino)pyrimido[4,5-d]pyridazin-5(6H)-one] | 74 | 
< 10 | 56 | < 50 |  | CCN(CC)CCOc1ccc(Nc2nc(N3CCCCCC3)nc3cn[nH]c(=O)c23)cc1 [Example 159, 2-(azepan-1-yl)-4-((4-(2-(diethylamino)ethoxy)phenyl)amino)pyrimido[4,5-d]pyridazin-5(6H)-one] | 68 | 
< 10 | 12 | < 10 |  | N#CCC(=O)N1CCN(c2ccc(Nc3nc(N4CCCCCC4)nc4cn[nH]c(=O)c34)cc2)CC1 [Example 215, 3-(4-(4-((2-(azepan-1-yl)-5-oxo-5,6-dihydropyrimido[4,5-d]pyridazin-4-yl)amino)phenyl)piperazin-1-yl)-3-oxopropanenitrile] | 96 | 

From patent publication US10183944B2 (Asana Biosciences, LLC, priority 2011, dated 2019)
